From publication PMC9377102, “Toxicity and toxicokinetics of the ethanol extract of Zuojin formula” (BMC Complementary Medicine and Therapies, 2022)
Like-named read-outs stand apart in the source and are kept apart here.

Columns and labels:
[1] = tested on: CYP3A4, CYP1A2 and CYP2D6; conditions: cited from earlier work
[2] = Toxicokinetics test in the satellite groups (UPLC-MS/MS of rat plasma); assay type: in vivo; conditions: for AUC(0-t) / Cmax / Tmax / half-life: SD, rat, plasma, po; for half-life: read-out: T1/2 mean (converted)
Protocol: SD rats (5 ~ 6 weeks, 3/group/sex) were randomly allocated to three treatment groups and given the same dosage as those in the repeated toxicity experiment for 28 days. […] Carbamazepine was chosen as the internal standard (IS). The blood samples were centrifuged to obtain plasma. Then, 300 μL of acetonitrile containing 40 ng of IS was added to 100 μL of plasma. After vortexing for 1 min, the mixture was centrifuged at 17,000 rpm for 15 min at 4 °C. The supernatant of each sample was injected into a UPLC–MS/MS system for determination. The injection volume was 1 μL. UPLC–MS analysis was performed on a Thermo Fisher Scientific Ultimate 3000 UPLC system (San Jose, USA) and an API 4000 QTRAP mass spectrometer (Foster City, USA) equipped with an ESI source. The mobile phase consisted of 2 solvents: (A) water containing 0.1% formic acid and (B) 100% acetonitrile. For MS, multiple reaction monitoring (MRM) in positive ion mode was used as the scanning mode for the main components and IS in the plasma samples. The dwell time (DT), collision energy (CE), quadrupole 1 pre-rod bias (Q1) and quadrupole 3 pre-rod bias (Q3) are listed in Table 3.

[3] = female, female rats, Day 1, highest dose (berberine 72.08, epiberberine 7.42, coptisine 7.42, palmatine 18.26, jatrorrhizine 2.80, columbamine 5.93 mg/kg)
[4] = female, female rats, Day 1, middle dose (berberine 24.03, epiberberine 2.47, coptisine 2.47, palmatine 6.09, jatrorrhizine 0.93, columbamine 1.98 mg/kg)
[5] = female, female rats, Day 28, highest dose (berberine 72.08, epiberberine 7.42, coptisine 7.42, palmatine 18.26, jatrorrhizine 2.80, columbamine 5.93 mg/kg)
[6] = female, female rats, Day 28, lowest dose (berberine 8.01, epiberberine 0.82, coptisine 1.38, palmatine 2.03, jatrorrhizine 0.31, columbamine 0.66 mg/kg)
[7] = female, female rats, Day 28, middle dose (berberine 24.03, epiberberine 2.47, coptisine 2.47, palmatine 6.09, jatrorrhizine 0.93, columbamine 1.98 mg/kg)
[8] = male, male rats, Day 1, lowest dose (berberine 8.01, epiberberine 0.82, coptisine 1.38, palmatine 2.03, jatrorrhizine 0.31, columbamine 0.66 mg/kg)
[9] = male, male rats, Day 1, middle dose (berberine 24.03, epiberberine 2.47, coptisine 2.47, palmatine 6.09, jatrorrhizine 0.93, columbamine 1.98 mg/kg)
[10] = male, male rats, Day 28, highest dose (berberine 72.08, epiberberine 7.42, coptisine 7.42, palmatine 18.26, jatrorrhizine 2.80, columbamine 5.93 mg/kg)
[11] = male, male rats, Day 28, lowest dose (berberine 8.01, epiberberine 0.82, coptisine 1.38, palmatine 2.03, jatrorrhizine 0.31, columbamine 0.66 mg/kg)
[12] = male, male rats, Day 28, middle dose (berberine 24.03, epiberberine 2.47, coptisine 2.47, palmatine 6.09, jatrorrhizine 0.93, columbamine 1.98 mg/kg)

Compound: COc1cc2c(cc1O)CC[n+]1cc3c(OC)c(OC)ccc3cc1-2 [jatrorrhizine]
- Metabolism by CYP3A4, CYP1A2 and CYP2D6 [1]: metabolized
- AUC(0-t) ([2]; female, 0.4 g/kg, female rats, Day 1, low dose TAZF 0.4 g/kg by gavage, read-out: AUC0-t): 25.6 ± 30 ng·h/mL
- Cmax ([2]; female, 0.4 g/kg, female rats, Day 1, low dose TAZF 0.4 g/kg by gavage, read-out: Cmax): 11 ± 7.79 ng/mL
- AUC(0-t) ([2]; female, 0.4 g/kg, female rats, Day 28, low dose TAZF 0.4 g/kg by gavage, read-out: AUC0-t): 23.9 ± 27.7 ng·h/mL
- Cmax ([2]; female, 0.4 g/kg, female rats, Day 28, low dose TAZF 0.4 g/kg by gavage, read-out: Cmax): 11.2 ± 15 ng/mL
- AUC(0-t) ([2]; female, 3.7 g/kg, female rats, Day 1, high dose TAZF 3.7 g/kg by gavage, read-out: AUC0-t): 22.1 ± 4.83 ng·h/mL
- Cmax ([2]; female, 3.7 g/kg, female rats, Day 1, high dose TAZF 3.7 g/kg by gavage, read-out: Cmax): 14.8 ± 10.7 ng/mL
- AUC(0-t) ([2]; female, 3.7 g/kg, female rats, Day 28, high dose TAZF 3.7 g/kg by gavage, read-out: AUC0-t): 11.4 ± 1.79 ng·h/mL
- Cmax ([2]; female, 3.7 g/kg, female rats, Day 28, high dose TAZF 3.7 g/kg by gavage, read-out: Cmax): 2.08 ± 0.41 ng/mL
- Tmax [2, 3]: 0.5 h
- AUC(0-t) ([2]; female, female rats, Day 1, highest dose (berberine 72.08, epiberberine 7.42, coptisine 7.42, palmatine 18.26, jatrorrhizine 2.80, columbamine 5.93 mg/kg), read-out: AUC0-t mean): 22.1 ng·h/mL
- Cmax ([2]; female, female rats, Day 1, highest dose (berberine 72.08, epiberberine 7.42, coptisine 7.42, palmatine 18.26, jatrorrhizine 2.80, columbamine 5.93 mg/kg), read-out: Cmax mean): 14.8 ng/mL
- half-life [2, 3]: 3.96 h
- AUC(0-t) ([2]; female, female rats, Day 1, lowest dose (berberine 8.01, epiberberine 0.82, coptisine 1.38, palmatine 2.03, jatrorrhizine 0.31, columbamine 0.66 mg/kg), read-out: AUC0-t mean): 25.6 ng·h/mL
- Cmax ([2]; female, female rats, Day 1, lowest dose (berberine 8.01, epiberberine 0.82, coptisine 1.38, palmatine 2.03, jatrorrhizine 0.31, columbamine 0.66 mg/kg), read-out: Cmax mean): 11 ng/mL
- half-life ([2]; female, female rats, Day 1, lowest dose (berberine 8.01, epiberberine 0.82, coptisine 1.38, palmatine 2.03, jatrorrhizine 0.31, columbamine 0.66 mg/kg)): 2.64 h
- Tmax [2, 4]: 0.83 h
- AUC(0-t) ([2]; female, female rats, Day 1, middle dose (berberine 24.03, epiberberine 2.47, coptisine 2.47, palmatine 6.09, jatrorrhizine 0.93, columbamine 1.98 mg/kg), read-out: AUC0-t mean): 19.9 ng·h/mL
- Cmax ([2]; female, female rats, Day 1, middle dose (berberine 24.03, epiberberine 2.47, coptisine 2.47, palmatine 6.09, jatrorrhizine 0.93, columbamine 1.98 mg/kg), read-out: Cmax mean): 14.6 ng/mL
- half-life [2, 4]: 3.57 h
- Tmax [2, 5]: 1.33 h
- AUC(0-t) ([2]; female, female rats, Day 28, highest dose (berberine 72.08, epiberberine 7.42, coptisine 7.42, palmatine 18.26, jatrorrhizine 2.80, columbamine 5.93 mg/kg), read-out: AUC0-t mean): 11.4 ng·h/mL
- Cmax ([2]; female, female rats, Day 28, highest dose (berberine 72.08, epiberberine 7.42, coptisine 7.42, palmatine 18.26, jatrorrhizine 2.80, columbamine 5.93 mg/kg), read-out: Cmax mean): 2.08 ng/mL
- half-life [2, 5]: 4.98 h
- Tmax [2, 6]: 4.17 h
- AUC(0-t) ([2]; female, female rats, Day 28, lowest dose (berberine 8.01, epiberberine 0.82, coptisine 1.38, palmatine 2.03, jatrorrhizine 0.31, columbamine 0.66 mg/kg), read-out: AUC0-t mean): 23.9 ng·h/mL
- Cmax ([2]; female, female rats, Day 28, lowest dose (berberine 8.01, epiberberine 0.82, coptisine 1.38, palmatine 2.03, jatrorrhizine 0.31, columbamine 0.66 mg/kg), read-out: Cmax mean): 11.2 ng/mL
- half-life [2, 6]: 3.39 h
- Tmax [2, 7]: 1 h
- AUC(0-t) ([2]; female, female rats, Day 28, middle dose (berberine 24.03, epiberberine 2.47, coptisine 2.47, palmatine 6.09, jatrorrhizine 0.93, columbamine 1.98 mg/kg), read-out: AUC0-t mean): 3.87 ng·h/mL
- Cmax ([2]; female, female rats, Day 28, middle dose (berberine 24.03, epiberberine 2.47, coptisine 2.47, palmatine 6.09, jatrorrhizine 0.93, columbamine 1.98 mg/kg), read-out: Cmax mean): 1.29 ng/mL
- half-life [2, 7]: 5.33 h
- T1/2 mean ([2]; male rats, Day 1, highest dose (berberine 72.08, epiberberine 7.42, coptisine 7.42, palmatine 18.26, jatrorrhizine 2.80, columbamine 5.93 mg/kg)): 9.68 h
- AUC(0-t) ([2]; male, 0.4 g/kg, male rats, Day 1, low dose TAZF 0.4 g/kg by gavage, read-out: AUC0-t): 52 ± 20.4 ng·h/mL
- Cmax ([2]; male, 0.4 g/kg, male rats, Day 1, low dose TAZF 0.4 g/kg by gavage, read-out: Cmax): 11.8 ± 10.8 ng/mL
- AUC(0-t) ([2]; male, 0.4 g/kg, male rats, Day 28, low dose TAZF 0.4 g/kg by gavage, read-out: AUC0-t): 8.62 ± 3.21 ng·h/mL
- Cmax ([2]; male, 0.4 g/kg, male rats, Day 28, low dose TAZF 0.4 g/kg by gavage, read-out: Cmax): 16.4 ± 16 ng/mL
- AUC(0-t) ([2]; male, 3.7 g/kg, male rats, Day 1, high dose TAZF 3.7 g/kg by gavage, read-out: AUC0-t): 101 ± 35.3 ng·h/mL
- Cmax ([2]; male, 3.7 g/kg, male rats, Day 1, high dose TAZF 3.7 g/kg by gavage, read-out: Cmax): 17.7 ± 11 ng/mL
- AUC(0-t) ([2]; male, 3.7 g/kg, male rats, Day 28, high dose TAZF 3.7 g/kg by gavage, read-out: AUC0-t): 25.6 ± 6.74 ng·h/mL
- Cmax ([2]; male, 3.7 g/kg, male rats, Day 28, high dose TAZF 3.7 g/kg by gavage, read-out: Cmax): 7.97 ± 7.64 ng/mL
- Tmax ([2]; male, male rats, Day 1, highest dose (berberine 72.08, epiberberine 7.42, coptisine 7.42, palmatine 18.26, jatrorrhizine 2.80, columbamine 5.93 mg/kg)): 4 h
- AUC(0-t) ([2]; male, male rats, Day 1, highest dose (berberine 72.08, epiberberine 7.42, coptisine 7.42, palmatine 18.26, jatrorrhizine 2.80, columbamine 5.93 mg/kg), read-out: AUC0-t mean): 101 ng·h/mL
- Cmax ([2]; male, male rats, Day 1, highest dose (berberine 72.08, epiberberine 7.42, coptisine 7.42, palmatine 18.26, jatrorrhizine 2.80, columbamine 5.93 mg/kg), read-out: Cmax mean): 17.7 ng/mL
- Tmax [2, 8]: 10 h
- AUC(0-t) ([2]; male, male rats, Day 1, lowest dose (berberine 8.01, epiberberine 0.82, coptisine 1.38, palmatine 2.03, jatrorrhizine 0.31, columbamine 0.66 mg/kg), read-out: AUC0-t mean): 52 ng·h/mL
- Cmax ([2]; male, male rats, Day 1, lowest dose (berberine 8.01, epiberberine 0.82, coptisine 1.38, palmatine 2.03, jatrorrhizine 0.31, columbamine 0.66 mg/kg), read-out: Cmax mean): 11.8 ng/mL
- half-life [2, 8]: 52.9 h
- Tmax [2, 9]: 1.83 h
- AUC(0-t) ([2]; male, male rats, Day 1, middle dose (berberine 24.03, epiberberine 2.47, coptisine 2.47, palmatine 6.09, jatrorrhizine 0.93, columbamine 1.98 mg/kg), read-out: AUC0-t mean): 74.5 ng·h/mL
- Cmax ([2]; male, male rats, Day 1, middle dose (berberine 24.03, epiberberine 2.47, coptisine 2.47, palmatine 6.09, jatrorrhizine 0.93, columbamine 1.98 mg/kg), read-out: Cmax mean): 15.4 ng/mL
- half-life [2, 9]: 68 h
- Tmax [2, 10]: 1.17 h
- AUC(0-t) ([2]; male, male rats, Day 28, highest dose (berberine 72.08, epiberberine 7.42, coptisine 7.42, palmatine 18.26, jatrorrhizine 2.80, columbamine 5.93 mg/kg), read-out: AUC0-t mean): 25.6 ng·h/mL
- Cmax ([2]; male, male rats, Day 28, highest dose (berberine 72.08, epiberberine 7.42, coptisine 7.42, palmatine 18.26, jatrorrhizine 2.80, columbamine 5.93 mg/kg), read-out: Cmax mean): 7.97 ng/mL
- half-life [2, 10]: 4.48 h
- Tmax [2, 11]: 0.83 h
- AUC(0-t) ([2]; male, male rats, Day 28, lowest dose (berberine 8.01, epiberberine 0.82, coptisine 1.38, palmatine 2.03, jatrorrhizine 0.31, columbamine 0.66 mg/kg), read-out: AUC0-t mean): 8.62 ng·h/mL
- Cmax ([2]; male, male rats, Day 28, lowest dose (berberine 8.01, epiberberine 0.82, coptisine 1.38, palmatine 2.03, jatrorrhizine 0.31, columbamine 0.66 mg/kg), read-out: Cmax mean): 16.4 ng/mL
- half-life [2, 11]: 11.1 h
- Tmax [2, 12]: 12 h
- AUC(0-t) ([2]; male, male rats, Day 28, middle dose (berberine 24.03, epiberberine 2.47, coptisine 2.47, palmatine 6.09, jatrorrhizine 0.93, columbamine 1.98 mg/kg), read-out: AUC0-t mean): 33.3 ng·h/mL
- Cmax ([2]; male, male rats, Day 28, middle dose (berberine 24.03, epiberberine 2.47, coptisine 2.47, palmatine 6.09, jatrorrhizine 0.93, columbamine 1.98 mg/kg), read-out: Cmax mean): 7.78 ng/mL
- half-life [2, 12]: 2.72 h
- Systemic exposure after 28 days of administration vs single administration ([2]; rats, oral TAZF): much lower
